Test system: 885512-296-R-J2-PDC complex spheroid growth, % test/control
Test: Anticancer human tumor 885512-296-R-J2-PDC patient-derived breast carcinoma cell line growth inhibition [AhR]
Conditions: for IC50: curve of first compound; for viability, T/C: stronger effect = lower value; active = viability on the fitted dose curve at most 10% of control; inactive = the rest
Summary of the method: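 Spheroids combined tumor cells with HUVEC endothelial cells and human MSCs as stroma. AhR antagonists were paired with standard or investigational drugs, each dosed in half-log steps down from near clinical Cmax, or from 10 microM where Cmax was unknown.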

[1] = second compound 0.1 µM, first compound 0.00949 µM
[2] = second compound 0.1 µM, first compound 0.03 µM
[3] = second compound 0.1 µM, first compound 0.0949 µM
[4] = second compound 0.1 µM, first compound 0.3 µM
[5] = second compound 0.316 µM, first compound 0.00949 µM
[6] = second compound 0.316 µM, first compound 0.03 µM
[7] = second compound 0.316 µM, first compound 0.0949 µM
[8] = second compound 0.316 µM, first compound 0.3 µM
[9] = second compound 1 µM, first compound 0.00949 µM
[10] = second compound 1 µM, first compound 0.03 µM
[11] = second compound 1 µM, first compound 0.0949 µM
[12] = second compound 1 µM, first compound 0.3 µM
[13] = second compound 3.16 µM, first compound 0.00949 µM
[14] = second compound 3.16 µM, first compound 0.03 µM
[15] = second compound 3.16 µM, first compound 0.0949 µM
[16] = second compound 3.16 µM, first compound 0.3 µM
[17] = second compound 10 µM, first compound 0.00949 µM
[18] = second compound 10 µM, first compound 0.03 µM
[19] = second compound 10 µM, first compound 0.0949 µM
[20] = second compound 10 µM, first compound 0.3 µM
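Also: spheroids exposed to compounds for seven days.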

CCN(c1cc(-c2ccc(CN3CCOCC3)cc2)cc(C(=O)NCc2c(C)cc(C)[nH]c2=O)c1C)C1CCOCC1 + Cc1cncc(-c2nc(NCCc3c[nH]c4ccccc34)c3ncn(C(C)C)c3n2)c1
> 3 µM: IC50 (second compound 0.1 µM) | IC50 (second compound 0.316 µM) | IC50 (second compound 1 µM) | IC50 (second compound 3.16 µM)
< 0.00949 µM: IC50 (second compound 10 µM)
inactive: viability, T/C [1] 98.8% | viability, T/C [2] 104% | viability, T/C [3] 91.3% | viability, T/C [4] 87.8% | viability, T/C (second compound 0.1 µM, first compound 0.949 µM) 94.8% | viability, T/C (second compound 0.1 µM, first compound 3 µM) 83.3% | viability, T/C [5] 102% | viability, T/C [6] 105% | viability, T/C [7] 98% | viability, T/C [8] 94.9% | viability, T/C (second compound 0.316 µM, first compound 0.949 µM) 88.5% | viability, T/C (second compound 0.316 µM, first compound 3 µM) 74.8% | viability, T/C [9] 91.4% | viability, T/C [10] 93.5% | viability, T/C [11] 85.7% | viability, T/C [12] 73.6% | viability, T/C (second compound 1 µM, first compound 0.949 µM) 72.8% | viability, T/C (second compound 1 µM, first compound 3 µM) 80.1% | viability, T/C [13] 58.6% | viability, T/C [14] 62.1% | viability, T/C [15] 59.9% | viability, T/C [16] 58.8% | viability, T/C (second compound 3.16 µM, first compound 0.949 µM) 53.5% | viability, T/C (second compound 3.16 µM, first compound 3 µM) 54.8% | viability, T/C [17] 21.8% | viability, T/C [18] 24.6% | viability, T/C [19] 24.4% | viability, T/C [20] 18.8% | viability, T/C (second compound 10 µM, first compound 0.949 µM) 13%
active: viability, T/C (second compound 10 µM, first compound 3 µM) 8.18%

Nc1ncn(C2CC(O)C(CO)S2)c(=O)n1 (stereo not given) + Cc1cncc(-c2nc(NCCc3c[nH]c4ccccc34)c3ncn(C(C)C)c3n2)c1
0.00346 µM: IC50 (second compound 3.16 µM)
0.0966 µM: IC50 (second compound 0.1 µM)
0.0939 µM: IC50 (second compound 0.316 µM)
< 0.000949 µM: IC50 (second compound 10 µM)
inactive: viability, T/C (second compound 0.1 µM, first compound 0.000949 µM) 99.5% | viability, T/C (second compound 0.1 µM, first compound 0.003 µM) 110% | viability, T/C [1] 107% | viability, T/C [2] 79% | viability, T/C [3] 53% | viability, T/C [4] 40.9% | viability, T/C (second compound 0.316 µM, first compound 0.000949 µM) 98% | viability, T/C (second compound 0.316 µM, first compound 0.003 µM) 94.1% | viability, T/C [5] 99.1% | viability, T/C [6] 75.9% | viability, T/C [7] 51.3% | viability, T/C [8] 38.8% | viability, T/C (second compound 1 µM, first compound 0.000949 µM) 67.6% | viability, T/C (second compound 1 µM, first compound 0.003 µM) 67.8% | viability, T/C [9] 70.7% | viability, T/C [10] 55.7% | viability, T/C [11] 38.8% | viability, T/C [12] 33.1% | viability, T/C (second compound 3.16 µM, first compound 0.000949 µM) 47.4% | viability, T/C (second compound 3.16 µM, first compound 0.003 µM) 54.8% | viability, T/C [13] 47.8% | viability, T/C [14] 42.5% | viability, T/C [15] 36% | viability, T/C [16] 27.5% | viability, T/C (second compound 10 µM, first compound 0.000949 µM) 21% | viability, T/C (second compound 10 µM, first compound 0.003 µM) 23.5% | viability, T/C [17] 18.9% | viability, T/C [18] 15% | viability, T/C [19] 17.4% | viability, T/C [20] 13.9%
0.0448 µM: IC50 (second compound 1 µM)
